Data set [1] concerns hiPSC-ECs. As to the kind of experiment: oxidative stress and inflammation readouts in hiPSC-ECs. Type of data set: cell-based, human. The note with it: for expression of proinflammatory cytokines and chemokines / inflammation-related genes / TLR4 expression / expression of ROS-related genes NOX1 and iNOS / mRNA expression of antioxidant-related genes (SOD1, SOD2, CAT, GPX1): Δ9-THC alone; for expression of proinflammatory cytokines and chemokines / inflammation-related genes: genistein or AM6545 = reversal of the Δ9-THC-induced effect; for TLR4 expression / expression of ROS-related genes NOX1 and iNOS / mRNA expression of antioxidant-related genes (SOD1, SOD2, CAT, GPX1): genistein = with Δ9-THC.

Data set [2] concerns the target T1, CB1 (Homo sapiens, UniProt P21554). Kind of data set: CB1 radioligand binding assay.
Data set [3] concerns the target T1, CB1. The settings on record: reported as an agonist; cited from earlier work.
The next data set deals with human CB2 (Homo sapiens, UniProt P34972). The note with it: reported as an agonist; cited from earlier work.
Sequence of human CB2 (P34972 whole entry): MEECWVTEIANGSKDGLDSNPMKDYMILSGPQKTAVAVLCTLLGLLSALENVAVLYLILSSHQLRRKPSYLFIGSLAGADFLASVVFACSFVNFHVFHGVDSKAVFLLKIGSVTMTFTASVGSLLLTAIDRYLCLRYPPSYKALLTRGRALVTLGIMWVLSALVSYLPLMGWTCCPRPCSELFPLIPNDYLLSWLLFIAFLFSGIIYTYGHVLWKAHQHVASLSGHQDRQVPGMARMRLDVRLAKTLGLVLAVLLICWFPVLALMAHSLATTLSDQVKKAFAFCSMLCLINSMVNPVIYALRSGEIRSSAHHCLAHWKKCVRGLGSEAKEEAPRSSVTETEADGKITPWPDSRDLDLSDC
For data set [4], the target named is G protein-coupled estrogen receptor (Homo sapiens, UniProt Q99527). The settings on record: agonist; cited from earlier work.
Sequence of G protein-coupled estrogen receptor (Q99527 whole entry): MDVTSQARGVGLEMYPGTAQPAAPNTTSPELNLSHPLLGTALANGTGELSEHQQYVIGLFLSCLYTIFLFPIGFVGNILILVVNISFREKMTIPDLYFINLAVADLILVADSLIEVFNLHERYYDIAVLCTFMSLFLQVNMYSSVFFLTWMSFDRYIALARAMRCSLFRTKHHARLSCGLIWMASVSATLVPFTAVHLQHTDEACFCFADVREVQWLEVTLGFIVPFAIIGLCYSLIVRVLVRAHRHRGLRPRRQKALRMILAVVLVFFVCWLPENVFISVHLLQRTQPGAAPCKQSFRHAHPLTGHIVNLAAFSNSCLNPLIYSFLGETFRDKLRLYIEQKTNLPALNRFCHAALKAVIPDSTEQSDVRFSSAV
The subject of the next data set is Human subjects. Kind of data set: human study in subjects ingesting medicinal cannabinoids. In kind it is in vivo. The note with it: 1 or 5 mg/Kg/day versus placebo.
For data set [5] the following is noted: in vivo; cited from earlier work.
Data set [6] deals with T1, CB1. As to the kind of experiment: in vitro GTPase assay. Type of data set: biochemical.
For data set [7], the system named is hiPSC-ECs. As to the kind of experiment: monocyte adhesion to hiPSC-ECs. In kind it is cell-based, human. The settings on record: Δ9-THC alone; genistein = with Δ9-THC.
The test system of data set [8] is LDL receptor knock-out mice (B6.129S7-Ldlr^tm1Her/J). As to the kind of experiment: atherosclerosis in LDL receptor knock-out mice on high-fat diet. Type of data set: in vivo, mouse. The settings on record: for serum lipid profiles or blood pressure: 12 weeks high-fat diet, genistein = cotreatment with Δ9-THC; for CD68-positive area in the aortic root (macrophage recruitment) / plaque size (Oil Red O; aortic root cross-sections and en face thoracic aorta): 12 weeks, genistein = co-treatment with Δ9-THC. As for the experimental part:
After 12 weeks, the mice were euthanized, and the atherosclerotic lesion area was examined by cross-sections of the aortic root and an en face analysis of the thoracic aorta. […] Macrophage recruitment in the aortic root was analyzed using aortic plaque stained with an anti-CD68 antibody.

The conditions of data set [9]: Yang et al. 2012; cited from earlier work.
In data set [10] the test system is C57BL/6J mice. As to the kind of experiment: 30-day C57BL/6J mouse model of Δ9-THC-induced endothelial dysfunction, oxidative stress and inflammation. The note with it: for endothelial function (wire myograph, thoracic aorta): 30 days, genistein = Δ9-THC plus genistein; for circulating levels of glutathione / plasma interleukins IL-6, IL-3 and IL-10: Δ9-THC alone; for circulating levels of glutathione: genistein = co-treatment; for plasma interleukins IL-6, IL-3 and IL-10: genistein = cotreatment. The text has this:
Seven-week-old male C57BL/6J mice were obtained from Jackson Laboratory (Bar Harbor, ME, USA). […] Organs were collected, weighed, and fixed with 4% paraformaldehyde (PFA). The thoracic aortas (TAs) were surgically dissected out and cleaned from the surrounding connective tissue for all groups. The TAs were transferred to ice-cold Krebs'-Henseleit solution and cut into segments of 2 mm. The artery segments were mounted in wire-myograph chambers for isometric tension recordings (DanishMyo Technology [DMT]).The chambers contained Krebs'-Henseleit solution. All chambers were aerated with 95% 02/5% CO2, and the temperature was kept constant at 37° C. to mimic physiological conditions. After a manual stabilization and normalization procedure, the PowerLab4/25-Chart7 acquisition systems (AD Instruments Ltd) was used to record force and convert it into tension. The TA segments were pre-constricted using either […] 5HT serotonin (5HT) or U46619. A cumulative application of acetylcholine ([…]) was performed, and the induced vascular dilatations were measured. Subsequently, concentration-response relationship curves were established for each group of 3 mice. Time-matched dimethylsulfoxide (DMSO) application was performed in a separate chamber as the control for all experiments.

The subject of data set [11] is C57BL/6J mice. Kind of data set: neurobehavioral testing (Billy Martin tetrad). Type of data set: in vivo, mouse.
The conditions of data set [12]: not told; cited from earlier work.
The test system of the next data set is ApoE^−/− mice. Kind of data set: ApoE−/− partial carotid artery ligation (PCAL) atherosclerosis model. In kind it is in vivo, mouse. The settings on record: for plaque area (Oil Red O), ligated carotid artery: 10 days high-fat diet, genistein = cotreatment with Δ9-THC; for CD68-positive area / F4/80-positive area, ligated carotid artery: genistein = co-treatment with Δ9-THC.

Data set [13] concerns human cardiac fibroblasts-ventricular (NHCF-V). As to the kind of experiment: cytotoxicity in cardiac fibroblasts.
Data set [14] has as its system hiPSC-ECs. As to the kind of experiment: cytotoxicity in hiPSC-ECs.
Another data set deals with human endothelial cells. Kind of data set: inflammation and antioxidant gene expression in human endothelial cells.
The subject of data set [15] is human endothelial cells (HUVECs and HCAECs). Kind of data set: cytotoxicity in human endothelial cells.
The mark [16] stands for this setting: Δ9-THC 20 mg/kg i.p., 60 min post-dosing.

Molecules are shown by their SMILES. pIC50, pKi: −log10 of the molar value. Where two headings read alike, the source gives them in different places.

The text below walks through data of US20240307342A1, “Treatment of the adverse cardiovascular effects of cannabinoids” (GreenStone Biosciences, Inc., priority 2022, published 2024).

T1 sequence (P21554 whole entry): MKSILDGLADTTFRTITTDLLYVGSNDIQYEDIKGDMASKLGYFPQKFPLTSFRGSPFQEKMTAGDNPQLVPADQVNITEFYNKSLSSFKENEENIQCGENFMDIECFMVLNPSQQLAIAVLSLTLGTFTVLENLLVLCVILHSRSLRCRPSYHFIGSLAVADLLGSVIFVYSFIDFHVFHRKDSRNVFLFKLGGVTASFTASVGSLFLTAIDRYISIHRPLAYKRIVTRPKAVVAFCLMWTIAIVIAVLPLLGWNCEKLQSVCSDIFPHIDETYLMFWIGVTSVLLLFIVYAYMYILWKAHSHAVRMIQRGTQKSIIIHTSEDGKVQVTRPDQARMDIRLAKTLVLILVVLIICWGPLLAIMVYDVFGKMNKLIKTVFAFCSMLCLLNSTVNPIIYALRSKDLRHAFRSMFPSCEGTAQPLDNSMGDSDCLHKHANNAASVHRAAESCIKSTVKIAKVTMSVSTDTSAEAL

As to `Cc1c(C(=O)NN2CCS(=O)(=O)CC2)nn(-c2ccc(Cl)cc2Cl)c1-c1ccc(C#CCCC#N)cc1` [AM6545], the “expression of proinflammatory cytokines and chemokines / inflammation-related genes” value with hiPSC-ECs [1] is “reversed”.

As usually defined, the pIC50 is −log10 of the IC50, conventionally taken in molar units. One may read the pKi as −log10 of the Ki, conventionally taken in molar units. Take `O=c1c(-c2ccc(O)cc2)coc2cc(O)cc(O)c12` [genistein, 5,7-dihydroxy-3-(4-hydroxyphenyl)-4H-1-benzopyran-4-one]: at CB1 [2], the negative logarithm of the IC50 (pIC50) is 6.82. Also, in the data set with hiPSC-ECs [1] (genistein with Δ9-THC), the NF-κB phosphorylation result is “attenuated”. In addition, in the data set with hiPSC-ECs [1], the TLR4 expression result was “disrupted”; the “expression of ROS-related genes NOX1 and iNOS” value is recorded as “salutatory effect”; the “mRNA expression of antioxidant-related genes (SOD1, SOD2, CAT, GPX1)” value is “ameliorated”; the “expression of proinflammatory cytokines and chemokines / inflammation-related genes” value is given as “reversed”. Besides, the pIC50 on CB1 [3] is 6.82. Moreover, on human CB2, the negative-log IC50 (pIC50) is below 4.30 and the pKi was below 4.30. In addition, the affinity in data set [4] was 133 nM. The “incidence of adverse cardiovascular effects of cannabinoid ingestion” value in the data set on Human subjects is reported as “dose-related lower incidence”. The bioavailability entry in [5] was “low bioavailability”. Besides, the “mode of action against CB1” value at CB1 [6] is on record as “neutral antagonist”. In the data set on hiPSC-ECs [7], the “monocyte adhesion to hiPSC-ECs” value is on record as “reversed”. Also, in data set [8], the “serum lipid profiles or blood pressure” value is “Neither Δ^9-THC nor cotreatment with Δ^9-THC and genistein affected”; the “CD68-positive area in the aortic root (macrophage recruitment)” value was “rescued”; the “plaque size (Oil Red O; aortic root cross-sections and en face thoracic aorta)” value is on record as “ameliorated plaque size”. The “blood-brain barrier (BBB) penetration” value in data set [9] is given as “poor blood-brain barrier (BBB) penetration”. For the same molecule, in the data set on C57BL/6J mice [10], the “endothelial function (wire myograph, thoracic aorta)” value is listed as “mitigated”; the “circulating levels of glutathione” value is recorded as “ameliorated”; the “plasma interleukins IL-6, IL-3 and IL-10” value is “significantly reduced”. In addition, in the data set on C57BL/6J mice [10] (with Δ9-THC), the “NF-κB phosphorylation and SOD expression in mouse serum” value is reported as “attenuated”; the “mRNA expressions of inflammation induced by Δ9-THC in mouse thoracic artery tissues” value is “ameliorated”; the “oxidative stress-related gene expression” value is reported as “rescued”. The Δ9-THC neurobehavioral effects result in the data set on C57BL/6J mice [11] (genistein 50 mg/kg p.o. in co-treatment with Δ9-THC 20 mg/kg i.p.) is listed as “could not attenuate”. Besides, the tetrad effects result in the data set on C57BL/6J mice [11] (genistein alone, 50 mg/kg p.o.) is given as “did not affect tetrad effects”. Besides, the cell wall permeability result in data set [12] is “high cell wall permeability”. In the data set on ApoE^−/− mice, the “plaque area (Oil Red O), ligated carotid artery” value is listed as “ameliorated plaque size”; the CD68-positive area entry was “reduced”; the “F4/80-positive area, ligated carotid artery” value was “decreased”.

Regarding `Cc1c(C(=O)NN2CCCCC2)nn(-c2ccc(Cl)cc2Cl)c1-c1ccc(Cl)cc1` [rimonabant], in the data set on C57BL/6J mice [10] (with Δ9-THC), the “mRNA expressions of inflammation induced by Δ9-THC in mouse thoracic artery tissues” value was “ameliorated”.

With `CCCCCc1cc(O)c2c(c1)OC(C)(C)[C@@H]1CCC(C)=C[C@@H]21` [Δ^9-THC, (6aR,10aR)-6,6,9-trimethyl-3-pentyl-6a,7,8,10a-tetrahydro-6H-benzo[c]chromen-1-ol], in the data set with hiPSC-ECs [1], the “I kappa B (IκB)” value is reported as “inhibited”; the “TNFα concentration in the cell culture medium” value is “increased”; the TLR4 expression entry is on record as “induced”; the “expression of ROS-related genes NOX1 and iNOS” value is given as “upregulated”. In addition, in the data set with hiPSC-ECs [1], the “mRNA expression of antioxidant-related genes (SOD1, SOD2, CAT, GPX1)” value is listed as “decreased”; the “expression of proinflammatory cytokines and chemokines / inflammation-related genes” value is on record as “increased”. Also, the “hydrogen peroxide (H2O2) levels” value in the data set on hiPSC-ECs [1] (immunofluorescence staining) was “increased”. Further, the “duration of Δ9-THC-induced expression of proinflammatory cytokines and chemokines after the initial exposure” value in the data set with hiPSC-ECs [1] (Δ9-THC 48 hours, then wash-out, no genistein) lay in the range of 8 to 10 days. In addition, the cytotoxicity entry in [13] is on record as “without any adverse effect”. In the data set on hiPSC-ECs [7], the “monocyte adhesion to hiPSC-ECs” value is on record as “increased adhesion”. In addition, in data set [8], the “serum lipid profiles or blood pressure” value is “Neither Δ^9-THC nor cotreatment with Δ^9-THC and genistein affected”; the “CD68-positive area in the aortic root (macrophage recruitment)” value is recorded as “significantly increased”; the “plaque size (Oil Red O; aortic root cross-sections and en face thoracic aorta)” value is given as “significantly increased plaque size”. In addition, in the data set on hiPSC-ECs [14], the cytotoxicity entry was “induced cytotoxicity”. For the same molecule, in the data set with C57BL/6J mice [10], the “endothelial function (wire myograph, thoracic aorta)” value was “induced endothelial dysfunction”; the “circulating levels of glutathione” value was “decreased”; the “plasma interleukins IL-6, IL-3 and IL-10” value is recorded as “elevated”. The “plasma concentration of Δ9-THC” value with C57BL/6J mice [10] (intraperitoneal injection, LC-MS) was around 100 ng/mL. Further, in the data set on C57BL/6J mice [11] (Δ9-THC 20 mg/kg i.p.), the “analgesia (hot plate 55° C.)” value is on record as “analgesia”. For the same molecule, in the data set with C57BL/6J mice [11] (setting [16]), the “hypothermia (rectal body temperature)” value is “hypothermia”, the “mobility (open field activity chamber)” value was “decreased mobility” and the “sedation (bar test)” value was “sedation”. In addition, in the data set on human endothelial cells, the antioxidant-related gene expression result is given as “reduced” and the “expression of inflammation-related genes” value is “induced”. The cytotoxicity result in data set [15] was “induced cytotoxicity”. Also, in the data set with ApoE^−/− mice, the “plaque area (Oil Red O), ligated carotid artery” value is on record as “increased”; the CD68-positive area entry was “significantly increased”; the “F4/80-positive area, ligated carotid artery” value is listed as “significantly increased”.
